Test system: MV-4-11 cells
Experiment: Gene expression microarray analysis (Affymetrix PrimeView) and GSEA
Assay type: cell-based, human
Design: RFU PODN (11730768_x_at) / Fold change /veh PODN (11730768_x_at) / RFU LINC00158 (11744669_a_at) / Fold change /veh LINC00158 (11744669_a_at) / RFU DUSP10 (11751237_a_at) / Fold change /veh DUSP10 (11751237_a_at) / RFU ID3 (11757404_x_at) / Fold change /veh ID3 (11757404_x_at) / RFU PLEKHG5 (11737974_s_at) / Fold change /veh PLEKHG5 (11737974_s_at) / RFU LRRC4B (11730491_at) / Fold change /veh LRRC4B (11730491_at) / RFU GIMAP4 (11747438_a_at) / Fold change /veh GIMAP4 (11747438_a_at) / RFU KRT8 (11758183_x_at) / Fold change /veh KRT8 (11758183_x_at) / RFU CNN1 (11734310_a_at) / Fold change /veh CNN1 (11734310_a_at) / RFU VPS37D (11726825_at) / Fold change /veh VPS37D (11726825_at) / RFU C10orf10 (11716522_x_at) / Fold change /veh C10orf10 (11716522_x_at) / RFU KIR2DL2 /// KIR2DL4 /// KIR2DL5A /// KIR2DL5B /// KIR2DS1 /// KIR2DS2 /// KIR2DS3 /// KIR2DS4 /// KIR3DL3 /// KIR3DL3 /// KIR3DS1 (11738374_at) / Fold change /veh KIR2DL2 /// KIR2DL4 /// KIR2DL5A /// KIR2DL5B /// KIR2DS1 /// KIR2DS2 /// KIR2DS3 /// KIR2DS4 /// KIR3DL3 /// KIR3DL3 /// KIR3DS1 (11738374_at) / RFU C1QL1 (11718748_at) / Fold change /veh C1QL1 (11718748_at) / RFU TMPRSS4 (11747572_a_at) / Fold change /veh TMPRSS4 (11747572_a_at) / RFU HAMP (11756126_x_at) / Fold change /veh HAMP (11756126_x_at) / RFU RNFT2 (11725882_a_at) / Fold change /veh RNFT2 (11725882_a_at) / RFU NR4A2 (11747474_a_at) / Fold change /veh NR4A2 (11747474_a_at) / RFU ABCC12 (11746883_a_at) / Fold change /veh ABCC12 (11746883_a_at) / RFU TMEM136 (11760407_x_at) / Fold change /veh TMEM136 (11760407_x_at) / RFU CLDN22 /// WWC2 (11732394_at) / Fold change /veh CLDN22 /// WWC2 (11732394_at) / RFU HLA-DPB1 (11760878_x_at) / Fold change /veh HLA-DPB1 (11760878_x_at) / RFU SPINT1 (11716480_a_at) / Fold change /veh SPINT1 (11716480_a_at) / RFU GAP43 (11754022_s_at) / Fold change /veh GAP43 (11754022_s_at) / RFU A4GNT (11735810_at) / Fold change /veh A4GNT (11735810_at) / RFU PRB3 (11715151_x_at) / Fold change /veh PRB3 (11715151_x_at) / RFU TUBB4B (11761932_at) / Fold change /veh TUBB4B (11761932_at) / RFU CAPN14 (11732068_a_at) / Fold change /veh CAPN14 (11732068_a_at) / RFU TMCC2 (11721928_a_at) / Fold change /veh TMCC2 (11721928_a_at) / RFU IRGQ (11745062_a_at) / Fold change /veh IRGQ (11745062_a_at) / RFU FAM174B (11720279_a_at) / Fold change /veh FAM174B (11720279_a_at) / RFU TMPRSS4 (11748680_a_at) / Fold change /veh TMPRSS4 (11748680_a_at) / RFU FAM212B (11763350_a_at) / Fold change /veh FAM212B (11763350_a_at) / RFU PLEKHG5 (11743358_a_at) / Fold change /veh PLEKHG5 (11743358_a_at) / RFU ZSCAN30 (11745921_a_at) / Fold change /veh ZSCAN30 (11745921_a_at) / RFU CMKLR1 (11741424_a_at) / Fold change /veh CMKLR1 (11741424_a_at) / RFU LOC101060620 /// MAPK8IP1 (11723275_at) / Fold change /veh LOC101060620 /// MAPK8IP1 (11723275_at) / RFU SPTSSB (11747773_x_at) / Fold change /veh SPTSSB (11747773_x_at) / RFU PRSS12 (11739890_at) / Fold change /veh PRSS12 (11739890_at) / RFU BIN1 (11741810_x_at) / Fold change /veh BIN1 (11741810_x_at) / RFU WNT11 (11732464_a_at) / Fold change /veh WNT11 (11732464_a_at) / RFU C10orf10 (11716521_a_at) / Fold change /veh C10orf10 (11716521_a_at) / RFU C5orf56 (11738089_at) / Fold change /veh C5orf56 (11738089_at) / RFU CYB561 (11721691_x_at) / Fold change /veh CYB561 (11721691_x_at) / RFU ANKRD19P (11752326_a_at) / Fold change /veh ANKRD19P (11752326_a_at) / RFU OR2T12 /// OR2T33 /// OR2T8 (11738714_s_at) / Fold change /veh OR2T12 /// OR2T33 /// OR2T8 (11738714_s_at) / RFU VCAN (11748164_a_at) / Fold change /veh VCAN (11748164_a_at) / RFU JSRP1 (11732532_at) / Fold change /veh JSRP1 (11732532_at) / RFU KRTAP10-11 (11738290_x_at) / Fold change /veh KRTAP10-11 (11738290_x_at) / RFU MYO3A (11730013_a_at) / Fold change /veh MYO3A (11730013_a_at) / RFU EBF3 (11725865_a_at) / Fold change /veh EBF3 (11725865_a_at) / RFU CAMK2N1 (11719241_x_at) / Fold change /veh CAMK2N1 (11719241_x_at) / RFU C5orf56 (11738088_a_at) / Fold change /veh C5orf56 (11738088_a_at) / RFU OLFML3 (11715873_a_at) / Fold change /veh OLFML3 (11715873_a_at) / RFU LOC100653217 /// NTM (11731650_a_at) / Fold change /veh LOC100653217 /// NTM (11731650_a_at) / RFU MAPK11 (11762145_a_at) / Fold change /veh MAPK11 (11762145_a_at) / RFU FIZ1 (11724087_x_at) / Fold change /veh FIZ1 (11724087_x_at) / RFU OASL (11726364_x_at) / Fold change /veh OASL (11726364_x_at) / RFU SOX15 (11748057_x_at) / Fold change /veh SOX15 (11748057_x_at) / RFU CD79A (11719716_a_at) / Fold change /veh CD79A (11719716_a_at) / RFU HIST1H1D (11736915_at) / Fold change /veh HIST1H1D (11736915_at) / RFU CASKIN2 (11723855_a_at) / Fold change /veh CASKIN2 (11723855_a_at) / RFU LOC730098 (11760151_x_at) / Fold change /veh LOC730098 (11760151_x_at) / RFU OR4N2 (11742367_at) / Fold change /veh OR4N2 (11742367_at) / RFU PRRT2 (11749266_a_at) / Fold change /veh PRRT2 (11749266_a_at) / RFU SNX32 (11753110_a_at) / Fold change /veh SNX32 (11753110_a_at) / RFU CDHR5 (11726645_a_at) / Fold change /veh CDHR5 (11726645_a_at) / RFU RCAN1 (11760418_a_at) / Fold change /veh RCAN1 (11760418_a_at) / RFU FAM167A (11723789_a_at) / Fold change /veh FAM167A (11723789_a_at) / RFU FAM26E (11764081_at) / Fold change /veh FAM26E (11764081_at) / RFU ISYNA1 (11749810_s_at) / Fold change /veh ISYNA1 (11749810_s_at) / RFU ACY1 (11761880_at) / Fold change /veh ACY1 (11761880_at) / RFU 11764098_at / Fold change /veh 11764098_at / RFU SAMD14 (11745864_x_at) / Fold change /veh SAMD14 (11745864_x_at) / RFU NPB (11741838_a_at) / Fold change /veh NPB (11741838_a_at) / RFU TMPRSS6 (11731388_a_at) / Fold change /veh TMPRSS6 (11731388_a_at) / RFU KRTAP10-2 (11738614_at) / Fold change /veh KRTAP10-2 (11738614_at) / RFU ARHGAP8 /// PRR5-ARHGAP8 (11727945_x_at) / Fold change /veh ARHGAP8 /// PRR5-ARHGAP8 (11727945_x_at) / RFU KRTAP5-7 /// NADSYN1 (11734609_at) / Fold change /veh KRTAP5-7 /// NADSYN1 (11734609_at) / RFU RASL12 (11751679_a_at) / Fold change /veh RASL12 (11751679_a_at) / RFU CDKN2B (11736163_a_at) / Fold change /veh CDKN2B (11736163_a_at) / RFU PRF1 (11729649_at) / Fold change /veh PRF1 (11729649_at) / RFU, ZNF638 /// ZNF638-IT1 / Fold change vs veh, ZNF638 /// ZNF638-IT1 / RFU, PANK3 / Fold change vs veh, PANK3 / RFU, SH3YL1 / Fold change vs veh, SH3YL1 / RFU, ZEB2 / Fold change vs veh, ZEB2 / RFU, NRIP1 / Fold change vs veh, NRIP1 / RFU, PTTG1IP / Fold change vs veh, PTTG1IP / RFU, CAPN2 / Fold change vs veh, CAPN2 / RFU, MED14 / Fold change vs veh, MED14 / RFU, SNORA58 / Fold change vs veh, SNORA58 / RFU, C1orf63 / Fold change vs veh, C1orf63 / RFU, LRRFIP1 / Fold change vs veh, LRRFIP1 / RFU, NDUFAF7 / Fold change vs veh, NDUFAF7 / RFU, SLC12A2 / Fold change vs veh, SLC12A2 / RFU, IBTK / Fold change vs veh, IBTK / RFU, ESF1 / Fold change vs veh, ESF1 / Fold change vs veh, TMEM50B / RFU, TAOK1 / Fold change vs veh, TAOK1 / RFU, ACBD3 / Fold change vs veh, ACBD3 / RFU, TMA16 / Fold change vs veh, TMA16 / RFU, RWDD3 / Fold change vs veh, RWDD3 / RFU, BCAT1 / Fold change vs veh, BCAT1 / RFU, EDEM3 / Fold change vs veh, EDEM3 / RFU, TMEM33 / Fold change vs veh, TMEM33 / RFU, WDR75 / Fold change vs veh, WDR75 / RFU, AHCTF1 / Fold change vs veh, AHCTF1 / RFU, TFRC / Fold change vs veh, TFRC / RFU, ZDHHC17 / Fold change vs veh, ZDHHC17 / RFU, NOM1 / Fold change vs veh, NOM1 / RFU, ARL8B / Fold change vs veh, ARL8B / RFU, ZBTB11 / Fold change vs veh, ZBTB11 / RFU, TAMM41 / Fold change vs veh, TAMM41 / RFU, KIAA1704 /// LOC100996395 / Fold change vs veh, KIAA1704 /// LOC100996395 / RFU, ING1 / Fold change vs veh, ING1 / RFU, TRMT61B / Fold change vs veh, TRMT61B / RFU, FUBP3 / Fold change vs veh, FUBP3 / RFU, TP53 / Fold change vs veh, TP53 / RFU, TNKS2 / Fold change vs veh, TNKS2 / RFU, ZFP14 / Fold change vs veh, ZFP14 / RFU, ACTR2 / Fold change vs veh, ACTR2 / RFU, PPP3R1 / Fold change vs veh, PPP3R1 / RFU, PIK3R1 / Fold change vs veh, PIK3R1 / RFU, HNRNPA1 / Fold change vs veh, HNRNPA1 / RFU, RNF170 / Fold change vs veh, RNF170 / RFU, ZNF28 / Fold change vs veh, ZNF28 / RFU, RNGTT / Fold change vs veh, RNGTT / RFU, OGT / Fold change vs veh, OGT / RFU, BRD1 / Fold change vs veh, BRD1 / RFU, MARS / Fold change vs veh, MARS / RFU, ZNF655 / Fold change vs veh, ZNF655 / RFU, FAHD1 / Fold change vs veh, FAHD1 / RFU, BDP1 / Fold change vs veh, BDP1 / RFU, LRRCC1 / Fold change vs veh, LRRCC1 / RFU, ARID1A / Fold change vs veh, ARID1A / RFU, ZNF146 / Fold change vs veh, ZNF146 / RFU, ZNF330 / Fold change vs veh, ZNF330 / RFU, GPN3 / Fold change vs veh, GPN3 / RFU, C9orf123 / Fold change vs veh, C9orf123 / RFU, N4BP2L2 / Fold change vs veh, N4BP2L2 / RFU, ARFIP1 / Fold change vs veh, ARFIP1 / RFU, FAM179B / Fold change vs veh, FAM179B / RFU, BCL10 / Fold change vs veh, BCL10 / RFU, UHRF1BP1L / Fold change vs veh, UHRF1BP1L / RFU, BET1 / Fold change vs veh, BET1 / RFU, CNOT2 / Fold change vs veh, CNOT2 / RFU, ZNF268 / Fold change vs veh, ZNF268 / Fold change vs veh, ZNF507 / RFU, DGCR2 / Fold change vs veh, DGCR2 / RFU, WDSUB1 / Fold change vs veh, WDSUB1 / Fold change vs veh, HSP90B1 /// MIR3652 / RFU, ADSS / Fold change vs veh, ADSS / RFU, GK / Fold change vs veh, GK / RFU, ZNF148 / Fold change vs veh, ZNF148 / RFU, TAF9 / Fold change vs veh, TAF9 / RFU, SLC1A5 / Fold change vs veh, SLC1A5 / RFU, SLMO2 / Fold change vs veh, SLMO2 / RFU, ABCC4 / Fold change vs veh, ABCC4 / RFU, LOC101060439 /// RAP1B / Fold change vs veh, LOC101060439 /// RAP1B / RFU, RFX7 / Fold change vs veh, RFX7 / RFU, GTPBP10 / Fold change vs veh, GTPBP10 / RFU, CNEP1R1 / Fold change vs veh, CNEP1R1 / RFU, BIVM-ERCC5 /// ERCC5 / Fold change vs veh, BIVM-ERCC5 /// ERCC5 / RFU, ILF3 / Fold change vs veh, ILF3 / RFU 11762660_at / Fold change /veh 11762660_at / RFU VCAN (11757783_s_at) / Fold change /veh VCAN (11757783_s_at) / RFU DDX43 (11728927_at) / Fold change /veh DDX43 (11728927_at) / RFU KRT8 (11758188_x_at) / Fold change /veh KRT8 (11758188_x_at) / RFU NKD1 (11759106_at) / Fold change /veh NKD1 (11759106_at) / RFU SRD5A1 (11742802_a_at) / Fold change /veh SRD5A1 (11742802_a_at) / RFU TPSAB1 /// TPSB2 (11721975_s_at) / Fold change /veh TPSAB1 /// TPSB2 (11721975_s_at) / RFU GSTM3 (11746129_a_at) / Fold change /veh GSTM3 (11746129_a_at) / RFU IL23R (11737362_x_at) / Fold change /veh IL23R (11737362_x_at) / RFU TMEM51 (11727254_a_at) / Fold change /veh TMEM51 (11727254_a_at) / RFU PIWIL2 (11732686_x_at) / Fold change /veh PIWIL2 (11732686_x_at) / RFU ORM1 (11744905_x_at) / Fold change /veh ORM1 (11744905_x_at) / RFU CCDC152 (11743942_at) / Fold change /veh CCDC152 (11743942_at) / RFU ECM1 (11717891_a_at) / Fold change /veh ECM1 (11717891_a_at) / RFU IL23R (11748794_a_at) / Fold change /veh IL23R (11748794_a_at) / RFU TNFAIP8L3 (11732012_x_at) / Fold change /veh TNFAIP8L3 (11732012_x_at) / RFU MBOAT4 (11741988_at) / Fold change /veh MBOAT4 (11741988_at) / RFU 11764193_at / Fold change /veh 11764193_at / RFU TMEM53 (11763286_at) / Fold change /veh TMEM53 (11763286_at) / RFU MAGEB2 (11727129_at) / Fold change /veh MAGEB2 (11727129_at) / RFU TMEM200A (11744735_a_at) / Fold change /veh TMEM200A (11744735_a_at) / RFU CCDC152 (11751479_a_at) / Fold change /veh CCDC152 (11751479_a_at) / RFU FAM211A (11726209_a_at) / Fold change /veh FAM211A (11726209_a_at) / RFU RGS16 (11746705_a_at) / Fold change /veh RGS16 (11746705_a_at) / RFU VCAN (11755009_s_at) / Fold change /veh VCAN (11755009_s_at) / RFU RHOB (11743442_s_at) / Fold change /veh RHOB (11743442_s_at) / RFU RGS16 (11720943_a_at) / Fold change /veh RGS16 (11720943_a_at) / RFU RGS16 (11720944_at) / Fold change /veh RGS16 (11720944_at) / RFU, VPS4B / Fold change vs veh, VPS4B / RFU, CREB1 / Fold change vs veh, CREB1 / RFU, DNAJC13 / Fold change vs veh, DNAJC13 / RFU, GNAQ / Fold change vs veh, GNAQ / RFU, CDK5R1 / Fold change vs veh, CDK5R1 / RFU, ZRANB3 / Fold change vs veh, ZRANB3 / RFU, CUL4A / Fold change vs veh, CUL4A / RFU, CCNY / Fold change vs veh, CCNY / RFU, UFL1 / Fold change vs veh, UFL1 / RFU, COG3 / Fold change vs veh, COG3 / RFU, DIAPH2 / Fold change vs veh, DIAPH2 / RFU, SKA2 / Fold change vs veh, SKA2 / RFU, AFF3 / Fold change vs veh, AFF3 / RFU, LMF1 / Fold change vs veh, LMF1 / RFU, IPO11 / Fold change vs veh, IPO11 / RFU, DFFB / Fold change vs veh, DFFB / RFU, FOXP1 / Fold change vs veh, FOXP1 / RFU, CARD8 / Fold change vs veh, CARD8 / RFU, STRN3 / Fold change vs veh, STRN3 / RFU, ADK / Fold change vs veh, ADK / RFU, RASSF2 / Fold change vs veh, RASSF2 / RFU, WIPF1 / Fold change vs veh, WIPF1 / RFU, LARP1B / Fold change vs veh, LARP1B / RFU, RASA1 / Fold change vs veh, RASA1 / RFU, RB1 / Fold change vs veh, RB1 / RFU, PPFIA1 / Fold change vs veh, PPFIA1 / RFU, MAT2A / Fold change vs veh, MAT2A / RFU, CCT5 / Fold change vs veh, CCT5 / RFU, WDR92 / Fold change vs veh, WDR92 / RFU, CUX1 / Fold change vs veh, CUX1 / RFU, TTC7A / Fold change vs veh, TTC7A / RFU, TMEM135 / Fold change vs veh, TMEM135 / RFU, DEPTOR / Fold change vs veh, DEPTOR / RFU, CPM / Fold change vs veh, CPM / RFU, DNAJB6 / Fold change vs veh, DNAJB6 / RFU, CACNA2D3 / Fold change vs veh, CACNA2D3 / RFU, DTX4 / Fold change vs veh, DTX4 / RFU, TFCP2 / Fold change vs veh, TFCP2 / RFU, GMCL1 /// GMCL1P1 / Fold change vs veh, GMCL1 /// GMCL1P1 / RFU, AEBP2 / Fold change vs veh, AEBP2 / RFU, SNHG1 /// SNORD22 /// SNORD25 /// SNORD26 /// SNORD27 /// SNORD28 /// SNORD29 /// SNORD31 / Fold change vs veh, SNHG1 /// SNORD22 /// SNORD25 /// SNORD26 /// SNORD27 /// SNORD28 /// SNORD29 /// SNORD31 / Fold change (Aza/veh), C12orf56 (ProbeSet 11735607_a_at) / Fold change (ACY-1035/veh), C12orf56 (ProbeSet 11735607_a_at) / Fold change (Aza/veh), FGFR1OP (ProbeSet 11751329_s_at) / Fold change (ACY-1035/veh), FGFR1OP (ProbeSet 11751329_s_at) / Fold change (Aza/veh), VPS36 (ProbeSet 11739960_a_at) / Fold change (ACY-1035/veh), VPS36 (ProbeSet 11739960_a_at) / RFU SYPL1 (11715823_x_at) / Fold change /veh SYPL1 (11715823_x_at) / RFU IGFBP7 (11715501_s_at) / Fold change /veh IGFBP7 (11715501_s_at) / RFU REEP3 (11722064_at) / Fold change /veh REEP3 (11722064_at) / RFU IGLL1 (11728026_x_at) / Fold change /veh IGLL1 (11728026_x_at): dose or concentration left out as unconfirmed
Conditions: ProbeSet 11746640_a_at; LIST D

Structure (SMILES): Nc1ccc(-c2cccs2)cc1NC(=O)c1ccc2c(c1)cc(C1CC1)n2CCN1CCOCC1 [ACY-1035]
- RFU, RASSF2: 39.78 RFU

Reference: PMC5218480 (PLoS ONE, 2017)
